Literature values as cited in patent US20120058097A1, “COMPOSITIONS INCLUDING A SODIUM CHANNEL BLOCKER AND A B VITAMIN MOLECULE AND METHODS OF USE THEREOF” (MS THERAPEUTICS LIMITED, priority 2010, published 2012).

Assays:
[1] = system: people with secondary progressive multiple sclerosis
[2] = in vivo

Structure (SMILES): Nc1nnc(-c2cccc(Cl)c2Cl)c(N)n1 [lamotrigine, 3,5-diamino-6-(2,3-dichlorophenyl)-1,2,4-triaz-ine]
- deterioration of walking speed ([1]; compared to the control group, 120 people with secondary progressive multiple sclerosis): approximately halve the deterioration of walking speed
- MRI measurements of brain volume ([1]; primary outcome measure, 2 year trial): early reduction in brain volume which was reversible over the 2 year course of the trial
- half life [2]: 23 to 36 h
